Assay results published in US5654411A, “Process for preparing 4-deoxyerythromycin derivatives” (Abbott Laboratories, priority 1995, dated 1997).

System: smooth muscle strips isolated from rabbit small intestine
Assay: Induction of in vitro rabbit duodenal smooth muscle contraction
Details: for EC50: Oryctolagus cuniculus, rabbit duodenum longitudinal muscle, 37° C., pH 7.5, read-out: pED50 (negative logarithm of the concentration producing half of the maximal contraction) (converted); for Relative Potency: relative to erythromycin A = 1.0
Experimental: The compounds of the present invention were tested in vitro for their ability to induce contraction of smooth muscle strips isolated from rabbit small intestine using the following procedure:
Rabbits were sacrificed and 15 cm of duodenum was rapidly removed and placed in ice-cold modified Ringers solution (120 mM sodium chloride, 25 mM sodium bicarbonate, 4.7 mM potassium chloride, 1.25 mM calcium chloride, 1.20 mM magnesium sulfate and 5.6 mM glucose). The longitudinal muscle layer was separated from the circular muscle by blunt dissection and cut into strips of 10×20 mm. Double-folded strips were vertically suspended between two hooks in 10 mL tissue baths with a mechanical preload of 1 g. The upper hook was connected to an […] force transducer, and its displacement was recorded on a Grass polygraph. The tissue baths contained modified Ringers solution at 37° C. and were continuously gassed with 95% oxygen/5% carbon dioxide in order to maintain the pH at 7.5.
After a stabilization period of at least 60 minutes, a contractility dose-response series was performed by adding increasing final concentrations of methacholine (10^-7 M, 10^-6 M and 10^-5 M) in volumes of 100 μL. The bath solutions were replaced at least three times between doses.
After the methacholine dose-response series was completed, a test compound dose response curve was initiated by the same procedure used for the methacholine dose-response series, with at least five concentrations of test compound within the range of 10^-10 M to 10^-4 M. The tissues were washed repeatedly between doses, and the studies were completed by recording the contractile response to 10^-5 M methacholine to ascertain integrity of the muscle preparation. Contractile responses were expressed as percent of maximal contraction. The concentration of test compound which produces half of the maximal contraction (ED50 value) and the negative logarithm of the ED50 value (PED50) were estimated from the dose-response curves.

| SMILES | EC50 [nM] | Endpoint (pED50) could not be obtained, potency in words (footnote a of Table 2) | Relative Potency |
| --- | --- | --- | --- |
| CC[C@H]1OC(=O)[C@H](C)[C@@H](O[C@H]2C[C@@](C)(OC)[C@@H](O)[C@H](C)O2)[C@H](C)[C@@H](O[C@@H]2O[C@H](C)C[C@H](N(C)C)[C@H]2O)[C@](C)(O)C[C@@H](C)C(=O)[C@H](C)[C@@H](O)[C@]1(C)O [erythromycin A, reference compound] | 1410 |  |  |
| CC[C@H]1OC(=O)[C@H](C)[C@@H](O[C@H]2C[C@@](C)(OC)C[C@H](C)O2)[C@H](C)[C@@H](O[C@@H]2O[C@H](C)C[C@H](NC)[C@H]2O)[C@@]2(C)CC(C)=C(O2)[C@H](C)[C@@H](O)[C@H]1C [Example 6, 8,9-anhydro-4"-deoxy-3'-N-desmethylerythromycin B-6,9-hemiketal] |  | extremely high potency | > 8000 |
| C#CC[N+](C)(C)[C@H]1C[C@@H](C)O[C@@H](O[C@@H]2[C@@H](C)[C@H](O[C@H]3C[C@@](C)(OC)C[C@H](C)O3)[C@@H](C)C(=O)O[C@H](CC)[C@H](C)[C@H](O)[C@@H](C)C3=C(C)C[C@@]2(C)O3)[C@@H]1O [Example 8, 8,9-anhydro-4"-deoxy-3'-N-propargylerythromycin B-6,9-hemiketal bromide] | 50.1 |  | 28 |
| CC[C@H]1OC(=O)[C@H](C)[C@@H](O[C@H]2C[C@@](C)(OC)C[C@H](C)O2)[C@H](C)[C@@H](O[C@@H]2O[C@H](C)C[C@H](NC)[C@H]2O)[C@@]2(C)C[C@@H](C)C(O2)[C@H](C)[C@@H](O)[C@]1(C)O [Example 14, 9-Deoxo-4',6-Dideoxy-3'-N-Desmethyl-6,9-Epoxyerythromycin A] | 70.8 |  | 20 |
| CC[C@H]1OC(=O)[C@H](C)[C@@H](O[C@H]2C[C@@](C)(OC)C[C@H](C)O2)[C@H](C)[C@@H](O[C@@H]2O[C@H](C)C[C@H](N(C)C)[C@H]2O)[C@@]2(C)CC(C)=C(O2)[C@H](C)[C@@H](O)[C@]1(C)O [Example 1, 8,9-Anhydro-4"-deoxyerythromycin A-6,9-hemiketal] | 3.89 |  | 363 |
| CC[C@H]1OC(=O)[C@H](C)[C@@H](O[C@H]2C[C@@](C)(OC)C[C@H](C)O2)[C@H](C)[C@@H](O[C@@H]2O[C@H](C)C[C@H](NC)[C@H]2O)[C@@]2(C)C[C@H](C)C(O2)[C@H](C)[C@@H](O)[C@]1(C)O [Example 10, 9-deoxo-3'-N-desmethyl-4",6-dideoxy-8-epi-6,9-epoxyerythromycin A] | 17.8 |  | 79 |
| C#CC[N+](C)(C)[C@H]1C[C@@H](C)O[C@@H](O[C@@H]2[C@@H](C)[C@H](O[C@H]3C[C@@](C)(OC)C[C@H](C)O3)[C@@H](C)C(=O)O[C@H](CC)[C@@](C)(O)[C@H](O)[C@@H](C)C3=C(C)C[C@@]2(C)O3)[C@@H]1O [Example 5, 8,9-anhydro-4"-deoxy-3'-N-propargylerythromycin A-6,9-hemiketal bromide] | 22.9 |  | 62 |
| C#CC[N+](C)(C)[C@H]1C[C@@H](C)O[C@@H](O[C@@H]2[C@@H](C)[C@H](O[C@H]3C[C@@](C)(OC)C[C@H](C)O3)[C@@H](C)C(=O)O[C@H](CC)[C@@](C)(O)[C@H](O)[C@@H](C)C3O[C@]2(C)C[C@H]3C)[C@@H]1O [Example 16, 9-deoxo-4",6-dideoxy-6,9-epoxy-3'-N-propargylerythromycin A bromide] | 40.7 |  | 35 |
| CC[C@H]1OC(=O)[C@H](C)[C@@H](O[C@H]2C[C@@](C)(OC)C[C@H](C)O2)[C@H](C)[C@@H](O[C@@H]2O[C@H](C)C[C@H](NC)[C@H]2O)[C@@]2(C)CC(C)=C(O2)[C@H](C)[C@@H](O)[C@]1(C)O [Example 3, 8,9-anhydro-4"-deoxy-3'-N-desmethyl erythromycin A-6,9-hemiketal] | 0.182 |  | 7,762 |
